From patent publication US20190358974A1, “COMPOSITIONS AND PARTICLES CONTAINING CELLULOSIC FIBERS AND STABILIZED- AND/OR ACTIVATED- UREASE INHIBITORS, AS WELL AS METHODS OF MAKING AND USING THE SAME” (INTERNATIONAL PAPER COMPANY, priority 2016, published 2019)

Legend:
[1] = system: Proteus mirabilis ATCC #7002; experiment: Bacterial ammonia test: NH3 in headspace over fluff/SAP pad inoculated with bacteria in synthetic urine; assay type: cell-based; conditions: 400 ppm PPDA inside cellulosic pulp, stored dry at ambient conditions, 20 weeks
Description: Test Pad Sample Preparation • 1. Place a non-woven carrier on the 50 mm diameter SCAN pad former screen, attach tube, tare, and place on SCAN test piece former. • 2. Weigh out 0.60 gm fiberized pulp. Fibers should be “fluffy”, well dispersed, and spread evenly in the weighing pan. • 3. Sprinkle 0.40 gm SAP evenly over the fiber. • 4. Start the vacuum and feed the SAP/fiber into the forming cone through the feed tube, ensuring that both materials are simultaneously introduced. • 5. Remove the pad assembly from the former and weigh. Lightly compress the pad and remove the tube. • 6. Lift the non-woven carrier with the pad off of the screen. • 7. Press to ˜3 mm • 8. Seal pad wrapped in non-woven in a plastic ziplok bag until testing.
This is the Test Inoculum Solution.
At the end of the designated exposure period, the ammonia in the headspace of the sealed jar is measured using the Drager system. The sampling end of the Drager tube is fitted with a needle which is inserted through the septum. A vent needle is inserted to allow withdrawal of the gaseous sample. The opposite end of the measuring tube is attached to the Drager pump. Ammonia is withdrawn according to the manufacturer specifications for the tube and the measurement recorded.
The PPDA treated pulp was then shredded by a lab hammermill to convert into fluff fibers. […]

[2] = cited from earlier work
[3] = Aging/degradation of PPDA on dry pulp, PPDA remaining tested by HPLC; assay type: physicochemical; conditions: 400 ppm PPDA on pulp stored on shelf as dry pulp, ambient conditions
Protocol: Bleached softwood pulp sheets were treated (sprayed) respectively with: 1) 400 ppm PPDA on pulp from water solution; 2) 400 ppm PPDA on pulp from PEG-200 solution; 3) 400 ppm PPDA on pulp from solution of 90% PEG-200 and 10% Talc powder. All the samples were dried on a dryer can at 195 F. They were then stored under room temperature (23 C) and 50% humidity chamber. The PPDA content remaining in the dry pulp samples was tested by HPLC.
They were then put into a controlled chamber with temperature of 55 C and 50% relative humidity. The PPDA content remaining in the dry pulp samples was tested by HPLC.
Accelerated aging study was done at 35 C and 50% RH with individual sheets thoroughly exposed to the environment. The control PPDA doses were 400 ppm and 1000 ppm based on the weight of the sheet, applied with water solution and dried. And the stabilized PPDA doses were also at 400 ppm and 1000 ppm on sheet, applied with 2% PPDA solution in PEG-200. The results are shown in the table below, and plotted in FIG. 4.
Aging test was also conducted on-shelf in the bag at room conditions. The result was shown in Table 12, and plotted in FIG. 5 in log scale.

## NP(N)(=O)Oc1ccccc1 [PPDA, phenylphosphorodiamidate]
[1]
  effectiveness against ammonia generation: lost all its effectiveness against ammonia generation
[2]; dry
  stability of dry PPDA: stable
[2]; in water
  stability in water: not stable
[3]
  stability inside cellulosic pulp: not stable
